# Data: US5217971A, “Thiazole compounds and pharmaceutical composition comprising the same” (Fujisawa Pharmaceutical Co., Ltd., priority 1989, dated 1993)
# How the values were obtained:
# [1] = tested on: stomachs of the rats; test: Effect on stomach of rats; assay type: in vivo; settings: 100 mg/kg, oral
# [2] = tested on: platelet aggregation; test: Platelet aggregation ex vivo (1), arachidonic acid-induced, PRP after oral administration; assay type: in vivo, male Hartley guinea-pigs; settings: guinea-pig, oral 1.0 mg/kg, 6 hours after administration, arachidonic acid final 50 μM
# Experimental: Male Hartley guinea-pigs weighing about 300 g were used after 24 hours fasting. Six hours after oral administration of the test compound or vehicle of test compound (control), blood was collected into a tube containing 0.1 vol. of 3.8% sodium citrate and prepared platelet rich plasma (PRP).
# To the 250 μl of PRP, 5 μl of arachidonic acid (final 50 μM) was added as an aggregation inducer. Aggregation was measured by using an aggregometer (NKK HEMA-TRACER 1).
# [3] = tested on: rats; test: Acute toxicity in rats by peroral administration; assay type: in vivo
# [4] = tested on: thrombin; test: Assay for thrombin activity (S-2238 substrate); assay type: biochemical; settings: concentration 1.0 × 10^-4 M, pH 8.0, 37° C.
# Experimental: Thrombin activity was measured using the synthetic peptide substrate (S-2238, Kabivitrum).
# After 900 μl of 0.1 M Tris-HCl buffer (pH 8.0), 100 μl of drug solution and 10 μl of 3U/ml thrombin were incubated at 37° C. for 5 min, 2 ml of 100 μM S-2238 was added.
# The rate of increase in absorbance at 405 nm due to hydrolysis of S-2238 was measured with a spectrophotometer.
# Inhibition (%) of drug was calculated as follows:
# Inhibition (%)=(S-B)/A×100
# A:Abs/min in the absence of drug
# B:Abs/min in the presence of drug
structure (smiles),measurement,setting,value
"COc1ccc(-c2nc(C(=O)N3CCN(C)CC3)sc2-c2ccc(OC)cc2)cc1.Cl [Example 1, 4,5-bis(4-methoxyphenyl)-2-(4methylpiperazin-1-yl)carbonylthiazole hydrochloride]",lesion in stomachs of rats,[1],No lesion was observed
same,Inhibition (%) of platelet aggregation,[2],100%
same,"acute toxicity, deaths at 100 mg/kg",[3],the dead at dose of 100 mg/kg could not be observed
"COc1ccc(-c2nc(C(=O)NC(=N)N)sc2-c2ccc(OC)cc2)cc1 [Example 5, 4,5-bis(4-methoxyphenyl)-2-guanidinocarbonylthiazole]",Inhibition (%) of thrombin activity,[4],92.2%
